Tested on: T1, XylR
T1 construct: without predicted 21-residue signal peptide; His6 (C-terminal as printed), pET28a(+), E. coli BL21(DE3); 75 kDa on SDS-PAGE; motifs 159WDVVNEA163, 280TELD283, 624GLSMG628
Experiment: spectrophotometric p-nitrophenol release at […] nm, Michaelis-Menten fit
Type: biochemical, uncultured bacterium (Nelore cattle rumen metagenome)
Conditions: 0.1 M sodium acetate pH 6.5, 37 °C; substrate 0.75 to 5 mM; esterase activity

Km: 2300 ± 400 µM
Structure (SMILES): CC(=O)Oc1ccc([N+](=O)[O-])cc1 [C2, p-nitrofenyl acetate]
